Measurements taken from ChEMBL document CHEMBL4425128, “Functional Characterization of Cholera Toxin Inhibitors Using Human Intestinal Organoids” (J Med Chem, 2016).
The source made the active and inactive calls. No cut-off for these calls is given here.

Experiments:
[1] = Inhibition of cholera toxin in human intestinal organoids assessed as reduction in oganoids swelling using cholera toxin pre-incubated with compound for 4 hrs before organoid stimulation with cholera toxin by calcein AM staining based confocal microscopy; conditions: Vibrio cholerae, Intestine
[2] = target: Cystic fibrosis transmembrane conductance regulator (Homo sapiens) (UniProt P13569); experiment: Inhibition of CFTR in human intestinal organoids assessed as reduction in forskolin-induced oganoids swelling incubated for 4 hrs with cholera toxin followed by subsequent stimulation with 0.1 uM forskolin by calcein AM staining based confocal microscopy; conditions: Intestine
[3] = Inhibition of HRP-tagged Vibrio cholerae cholera enterotoxin subunit B5 binding to GM1 coated plates using GM1os-beta-NAc-propargyl

Sequence of Cystic fibrosis transmembrane conductance regulator (Homo sapiens) (P13569 whole entry, looked up): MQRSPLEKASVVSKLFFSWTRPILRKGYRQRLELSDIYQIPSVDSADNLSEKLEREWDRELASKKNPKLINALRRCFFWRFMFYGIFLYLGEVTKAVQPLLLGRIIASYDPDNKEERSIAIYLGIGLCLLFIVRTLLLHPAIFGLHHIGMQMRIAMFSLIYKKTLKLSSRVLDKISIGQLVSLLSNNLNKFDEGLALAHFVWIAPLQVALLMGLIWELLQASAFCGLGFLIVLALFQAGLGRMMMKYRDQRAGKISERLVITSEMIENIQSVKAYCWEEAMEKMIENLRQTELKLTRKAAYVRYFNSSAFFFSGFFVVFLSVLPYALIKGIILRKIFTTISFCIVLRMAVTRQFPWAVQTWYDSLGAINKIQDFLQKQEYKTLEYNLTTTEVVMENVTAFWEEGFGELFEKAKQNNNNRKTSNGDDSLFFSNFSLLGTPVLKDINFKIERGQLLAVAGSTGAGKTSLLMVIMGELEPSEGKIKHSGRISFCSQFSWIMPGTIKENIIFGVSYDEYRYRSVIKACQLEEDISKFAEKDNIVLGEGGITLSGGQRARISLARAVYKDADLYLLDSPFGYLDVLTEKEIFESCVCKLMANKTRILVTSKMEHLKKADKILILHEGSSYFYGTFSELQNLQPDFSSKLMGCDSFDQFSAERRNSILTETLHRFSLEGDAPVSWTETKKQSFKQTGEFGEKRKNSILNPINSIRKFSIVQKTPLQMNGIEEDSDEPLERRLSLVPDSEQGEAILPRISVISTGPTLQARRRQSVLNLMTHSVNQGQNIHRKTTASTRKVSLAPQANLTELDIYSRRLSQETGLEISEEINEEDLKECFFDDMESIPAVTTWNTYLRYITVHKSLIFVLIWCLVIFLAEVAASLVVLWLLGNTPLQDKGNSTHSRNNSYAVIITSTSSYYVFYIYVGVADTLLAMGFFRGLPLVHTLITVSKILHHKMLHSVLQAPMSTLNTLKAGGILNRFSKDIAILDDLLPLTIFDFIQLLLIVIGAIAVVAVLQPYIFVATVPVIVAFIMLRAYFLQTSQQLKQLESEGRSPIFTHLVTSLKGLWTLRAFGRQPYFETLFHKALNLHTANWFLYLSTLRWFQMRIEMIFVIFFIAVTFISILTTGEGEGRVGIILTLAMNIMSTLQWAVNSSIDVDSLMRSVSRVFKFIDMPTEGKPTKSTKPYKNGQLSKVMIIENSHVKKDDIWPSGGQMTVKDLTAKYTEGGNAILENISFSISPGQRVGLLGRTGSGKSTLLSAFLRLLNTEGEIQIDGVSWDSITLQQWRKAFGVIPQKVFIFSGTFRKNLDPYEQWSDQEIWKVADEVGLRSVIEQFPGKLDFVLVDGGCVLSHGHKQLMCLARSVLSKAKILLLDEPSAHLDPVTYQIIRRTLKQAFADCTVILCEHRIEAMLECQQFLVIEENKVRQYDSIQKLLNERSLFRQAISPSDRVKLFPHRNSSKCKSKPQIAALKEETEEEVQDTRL

| Compound | IC50 [1] | inhibition [2] | IC50 [3] |
| --- | --- | --- | --- |
| CC(=O)N[C@H]1[C@H](O[C@@H]2[C@H](O[C@]3(C(=O)O)C[C@H](O)[C@@H](NC(C)=O)[C@H]([C@H](O)[C@H](O)CO)O3)[C@@H](O)[C@H](O[C@H]3[C@H](O)[C@@H](O)[C@H](N(Cc4cn([C@@H]5[C@@H](OC(C)=O)O[C@@H](n6cc(CN(C(C)=O)[C@@H]7O[C@H](CO)[C@@H](O[C@@H]8O[C@H](CO)[C@H](O[C@@H]9O[C@H](CO)[C@H](O)[C@H](O[C@@H]%10O[C@H](CO)[C@H](O)[C@H](O)[C@H]%10O)[C@H]9NC(C)=O)[C@H](O[C@]9(C(=O)O)C[C@H](O)[C@@H](NC(C)=O)[C@H]([C@H](O)[C@H](O)CO)O9)[C@H]8O)[C@H](O)[C@H]7O)nn6)[C@H](OC(C)=O)[C@H]5OC(C)=O)nn4)C(C)=O)O[C@@H]3CO)O[C@@H]2CO)O[C@H](CO)[C@H](O)[C@@H]1O[C@@H]1O[C@H](CO)[C@H](O)[C@H](O)[C@H]1O | 0.018 µM | inactive | 0.008 µM |
| CC(=O)N[C@H]1[C@H](O[C@@H]2[C@H](O[C@]3(C(=O)O)C[C@H](O)[C@@H](NC(C)=O)[C@H]([C@H](O)[C@H](O)CO)O3)[C@@H](O)[C@H](O[C@H]3[C@H](O)[C@@H](O)[C@H](N(Cc4cn(CCOCCOCCOCCO)nn4)C(C)=O)O[C@@H]3CO)O[C@@H]2CO)O[C@H](CO)[C@H](O)[C@@H]1O[C@@H]1O[C@H](CO)[C@H](O)[C@H](O)[C@H]1O | 0.424 µM | inactive | 0.11 µM |
| O=C[C@H](O)[C@@H](O)[C@@H](O)[C@H](O)CO [GALACTOSE] | 9100 µM | inactive | – |
